We go through 1 molecule from patent US20240360145A1, “PYRIMIDINE-2,4-DIAMINE DERIVATIVES AS WELL AS PREPARATION METHOD THEREFOR AND USE THEREOF” (LISEN THERAPEUTICS, INC., priority 2022, published 2024).

Assay type in all cases: cell-based
Assay [1] has as its system NCI-H1792 cells. Put plainly: Cell viability IC50 (MTT), AMG510-resistant NCI-H1792 cells. The conditions noted are these: Homo sapiens, NCI-H1792 cells (KRAS G12C). As for the experimental part: Non-small cell lung cancer cell lines NCI-H1975, NCI-H1650, and NCI-H1792 were cultured in RPMI-1640 medium containing 10% fetal bovine serum and 1% penicillin-streptomycin. 1% sodium pyruvate was additionally added when culturing NCI-H1975 cells. All the cells were cultured in a constant temperature incubator containing 5% CO2 at 37° C.
(1) The cells were cultured to the logarithmic growth phase. When the confluence reached about 90%, the cells were digested with 0.25% trypsin, and complete medium was added to collect the cells. After centrifugation at room temperature, the supernatant was discarded, and the cell precipitate was resuspended with fresh complete medium. […]
(5) The medium was carefully aspirated off, 100 μl of DMSO was added to dissolve the precipitate formed by the reaction with MTT, shaking and mixing to mix the blue-violet crystals well, and the light absorbance value at 492 nm was read with a microplate reader.
(6) IC50 of the compounds for different cells was calculated based on the light absorption value of each group. Specifically, the absorbance value under treatment with different concentrations of compounds was first subtracted from the absorbance value of the blank well, and then the absorbance value of the 0 μM group was taken as 100% to calculate the cell survival rate after treatment with different concentrations of compounds. […]

Assay [2] relates to NCI-H146 cells. Put plainly: Cell viability IC50 (CCK-8), small cell lung cancer cell line H146. The conditions noted are these: Homo sapiens, NCI-H146; H146, CCK-8. As for the experimental part:
Small cell lung cancer cell lines DMS114, NCI-H1688, NCI-H82, NCI-H146, and NCI-H446 cells were cultured in RPMI-1640 medium containing 10% fetal bovine serum and 1% penicillin-streptomycin. All the cells were cultured in a constant temperature incubator containing 5% CO2 at 37° C.
Small cell lung cancer is a highly heterogeneous malignant tumor, and its clinical treatment is mainly based on traditional chemotherapy (mainly platinum medicaments and etoposide). In order to study the anti-tumor activity of the compounds of the present disclosure in small cell lung cancer, the CCK-8 method was used to investigate the cell viability IC50 of compound 8 for five small cell lung cancer cell lines.

Assay [3] deals with PE062 primary cells. Put plainly: Cell viability IC50 (CCK-8), primary cells PE062 from small cell lung cancer pleural effusion. The conditions noted are these: PE062, CCK-8. Here is the method:
(1) The pleural effusion was poured into a 15 mL or 50 mL of sterilized centrifuge tube for centrifugation. Centrifugation conditions: 800 to 1000 rpm, 5 min.
(2) The precipitate was resuspended and washed for 2 to 3 times with PBS.
(3) The cell precipitate was resuspended with complete culture medium (α-MEM medium containing 10% fetal bovine serum and 2% penicillin-streptomycin), and the flocculent matter in the pleural effusion was removed using a sterilized cell sieve.
(4) The red blood cells in the pleural effusion were removed with lymphocyte separation fluid, and the tumor cells and lymphocyte components were collected. The number of tumor cells was observed under a microscope, and the cells were inoculated.
(5) After 24 hours, the supernatant was discarded, and fresh culture medium was added for further culture.
(6) The cell growth status was observed, and it was determined based on the cell status whether the medium was required to be continuously changed to remove blood cells. When the cells grew to a density of 80% to 90%, the cells were preserved.
(1) Primary cells from lung cancer pleural effusion within 5 generations were cultured to the logarithmic growth phase. […] After centrifugation at room temperature, the supernatant was discarded, and the cell precipitate was resuspended with fresh complete culture medium. After counting, the cells were placed at room temperature for later use. The cells were inoculated into a 384-well plate at a density of 2000 cells/well with a volume of 40 μl/well. The wells at the outermost circle of the plate were not inoculated with cells, and instead, added with sterile water to reduce evaporation of the culture medium.
(2) After overnight culture of the cells, the medium was discarded, and a fresh medium containing different concentrations of compounds was added at 200 μl/well. The dilution method of the compound was as follows: first the compound with the highest concentration of 10 μM was prepared, and then the compound was diluted for 3 times in sequence. […] At the same time, a blank control group was set up, in which only an equal volume of culture medium was added without adding cells. Five replicate wells were set up for each group. The cells were placed in the incubator for further culture.
(3) After 72 hours, 8 μl of CCK-8 solution, which was double-diluted with 10 mM PBS, was added to each well, and the cells were shaken and placed in an incubator at 37° C. for further culture for 2 hours.
(4) The light absorbance value at 450 nm was read using a microplate reader, and the IC50 was calculated according to the absorbance value. The calculation method was the same as above.
(1) Sample information: PE039, PE052, and PE062 were all primary cell samples from pleural effusion of patients with small cell lung cancer, and LT015 was a primary cell sample from bronchoscopic biopsy of a patient with small cell lung cancer.
(2) CCK-8 detection was used to detect the IC50 values of different medicaments (compounds).

For assay [4], the system named is ASH-3 (thyroid cancer). Put plainly: Cell viability IC50 (CellTiter-Glo), ASH-3. The conditions noted are these: ASH-3, 72 hours. As for the experimental part: (§1) The cancer cell lines were cultured to the logarithmic growth phase according to conventional culture methods, and the cells were inoculated into a 384-well plate at a density of 2,000 cells/well in a volume of 40 μl/well. The concentrations of added compounds were: […], 1.67 μM, 0.56 μM, 0.19 μM, 0.062 μM, 0.021 μM, 0.0069 μM, 0.0023 μM, 0.00076 μM, and 0 μM. After 72 hours, cell viability was detected using the CellTiter-Glo™ Detection Kit.

Assay [5] concerns RT-4 (bladder cancer). Put plainly: Cell viability IC50 (CellTiter-Glo), RT-4. The conditions noted are these: RT-4, 72 hours. As for the experimental part:
as §1
In general terms: Cellular ATP, detected with luciferase, serves as a proxy for viable cell number.

Assay [6] has as its system A375 (melanoma). Put plainly: Cell viability IC50 (CellTiter-Glo), A375. The conditions noted are these: Homo sapiens, A-375, A375, 72 hours. Here is the method:
as §1

With `CN1CC2CCC(C1)N2Cc1ccc(Nc2ncc(Cl)c(Nc3ccccc3S(=O)(=O)N(C)C)n2)cc1` [Compound 8, 2-((5-chloro-2-((4-((3-methyl-3,8-diazabicyclo[3.2.1]octan-8-yl)methyl)phenyl)amino)pyrimidin-4-yl)amino)-N,N-dimethylbenzenesulfonamide], the IC50 (usually the concentration that gives 50% inhibition) was determined as 40.6 nM in assay [1]; 9.92 nM in assay [2]; 2.7 nM in assay [3]; 44 nM in assay [4]; 54 nM in assay [5]; 23.3 nM in assay [6].
